Data: patent US20220235006A1, “PYRIDINE DERIVATIVES AS TMEM16A MODULATORS FOR USE IN THE TREATMENT OF RESPIRATORY CONDITIONS” (TMEM16A LIMITED, priority 2019, published 2022)
In brackets after ≈: the same amount, converted by molar mass.

Experiments:
[1] = tested on: Cryopreserved hepatocytes (human); test: Hepatic stability (cryopreserved hepatocytes); type: in vitro ADME; details: 1 μM
Description: Cryopreserved hepatocytes (human) were obtained from Bioreclamation.
Test compounds and reference controls (raloxifene, diclofenac, terenadine, propranolol, dextromethorphan and metoprolol) were dissolved in a 100 μM stock was prepared by diluting 5 μL of 4 mM (DMSO) in 195 μL of 50:50 DMSO:hepatocyte buffer. Final test compound concentration in incubation was 1 μM.
The hepatocyte buffer was prepared (Williams E media containing phenol red and Glutamax™, 15 mM HEPES, warmed to 37° C., pH7.4 with NaOH). Hepatocyte cells (all main species) were removed from liquid nitrogen, thawed in a waterbath, decanted into 50 mL of pre-warmed Cryopreserved Hepatocyte Recovery Media (LifeTechnologies) and centrifuged. Supernatant fraction was removed, cells were re-suspended in hepatocyte buffer and counted by trypan blue exclusion. Cell viability of >80% was required for all assays.
2 μL of 100 μM compound stock solution was added to relevant wells to initiate the incubation. A no cell control and two replicates of each test compound was included in every assay. Cells were incubated at 37° C., on a shaker set at 300 rpm. […] Samples were diluted 1:1 with water using the Janus Robot and analysed by LC-MS/MS.

Microsomal stability = type: in vitro ADME; details: human microsomes 0.5 mg/mL; 1 μM; 1 mM NADPH
Description: Microsomes (human) were obtained from Bioreclamation.
All Test and reference control compounds (raloxifene, diclofenac, terfenadine, propranolol, dextromethorphan and metoprolol) were dissolved to create a 100 μM stock (final concentrations; 91.5% Acetonitrile: 8.5% DMSO). Final test compound concentration in incubation was 1 μM (<0.1% DMSO).
Solution 1: 17.4 g potassium phosphate dibasic anhydrous (K2HPO4, 0.1 M) dissolved in 1 L deionised water. Solution 2: 13.6 g potassium phosphate monobasic anhydrous (KH2PO4, 0.1 M) dissolved in 1 L deionised water. pH7.4 with 2 mM magnesium chloride. NADPH (10 mM) is prepared in deionised water.
Microsomes (all species) were removed from the −80° C. thawed at 37° C. Microsomes were diluted in assay buffer to achieve a final protein concentration of 0.5 mg/mL and 1 mM NADPH.
The following procedure was completed on a Perkin Elmer Janus robotic platform in 96 well format: The microsomal incubation plate was transferred to a heater shaker at 300 rpm and solution heated to 37° C. for 10 min pre-warm. A no co-factor control at 0 and 45 min and one replicates of each test compound was included in every assay. Microsomes were incubated at 37° C., on a shaker set at 300 rpm throughout the assay. […] Samples were diluted 1:1 with water using the Janus Robot and analysed by […]

[2] = Kinetic solubility determination (high throughput); type: physicochemical; details: kinetic from dmso stock, sterile water, 5% DMSO, room temperature
[3] = Parallel artificial membrane permeability assay (PAMPA); type: in vitro ADME; details: 200 μM, 16 hours
Description: Parallel artificial membrane permeability assay (PAMPA) permeability data is a useful tool to predict passive permeability through biological lipid membranes. […] Passive permeability (>0.1 and <10×10^−6 cm/s) may still give good absorption properties.
All Test compounds were formulated in DMSO to 20 mM. Final concentration of all compounds in the assay was 200 μM with final DMSO concentration of 1%. The following reference controls were used: Antipyrine, Carbamazepine, Propranolol, Ranitidine and Ketoprofen.
The solutions were filtered and 150 μL transferred to a High Sensitivity 96 well UV plate. This was analysed by UV as the reference plate. A 200 μL sample of the 200 μM solution was transferred to the ‘donor’ plate of the PAMPA plon sandwich plate system. […] Donor and acceptor plates were sandwiched and kept in a humid environment at room temperature for 16 hours. On completion of the incubation the donor and acceptor plates were separated. 150 μL of solution was transferred from each of the donor and acceptor PAMPA sandwich plates into High Sensitivity 96 well UV plates for analysis by UV. Passive permeability (Pe 10^−6 cm/second) was determined for each compound tested. Control compounds were compared with historic and literature values to ensure assay functionality.

[4] = Caco-2 permeability assay; type: in vitro ADME; details: human, Caco-2, pH 7.4; for efflux ratio at 2 h, 10 μM: B-A/A-B; for Papp B→A at 2 h, 10 μM: basolateral to apical, pH7.4
Description: Caco2 permeability data provides a measure of a compound's permeability, and its potential for efflux by P-glycoprotein. […] This assay therefore provides an indication of which compounds are likely to be suitable for oral administration.
Caco-2 cells were purchased from ATCC and passaged to create a bank of cells. Cells were not used post 20 passages.
All test and reference compounds (metoprolol (passive permeability) and atenolol (pgp substrate)) were formulated in DMSO to 20 mM.
96-well plates were seeded with 9×10^3 Caco-2 cells/well in DMEM, 10% FBS, 1% NEAA, 1% pen/strep and maintained at 37° C., in a highly humidified atmosphere of 95% air and 5% CO2. Plates were ready for use on day 21.
10 mM DMSO stock test compounds were diluted to 1 mM in DMSO. Two replicates of each test compound were included in every assay. Final concentration of donor solution was 10 μM.
Assay transport buffer (25 mM HEPES/Hanks Balanced Salt Solution (HBSS), pH7.4) was prepared to wash the cells, create lucifer yellow (LY) stock solutions, receiver solutions and blanks for the transport assay. Final concentration of LY was 10 μM. Basolateral wells were treated with 250 μL of 10 μM dosing drug solution or 250 μL Transport Buffer. Apical wells were treated with 75 μL drug dosing solution or 75 μL Transport Buffer. The two plates were sandwiched together and cells were incubated with test compounds for 2 hours, shaking at 50 rpm, 37° C., 0% CO2.
A calibration curve was prepared for each compound; DMSO stock solutions were serially diluted from 300 μM to 100 μM, 30 μM, 10 μM, 3 μM, 1 μM and 0.3 μM in DMSO. 2 μL of each concentration was diluted into 198 μL of Sample Quench Solution (50% acetonitrile containing 500 nM tolbutamide). 50 μL of each calibration solution was then diluted in 50 μL Dosing Buffer (modified HBSS containing LY). Finally this plate was diluted 1:10 using a Janus robot in Robot Dilution Quench Solution (35% acetonitrile containing 250 nM tolbutamide).
Following a 2 h incubation, 50 μL of sample was removed from each well (apical and basolateral) and added to the T2 sample plate. Lucifer Yellow fluorescence was analysed using Spectrafluor Plus featuring the XFluor software to determine membrane integrity.
Following the fluorescence plate read, 50 μL Sample Quench Solution was then added to the T2 sample plate. Plates were diluted 1:10 and/or 1:100 into opaque 384-well plates using a Janus Robot. 1:100 dilution transfers were created sequentially directly from 1:10 dilutions. All dilutions were created using Robot Dilution Quench Solution (35% acetonitrile containing 250 nM tolbutamide). All samples were analysed by LC-MS/MS.

| SMILES | Human Hepatocyte CIint [1] | Human Microsome CIint (Microsomal stability) | solubility kinetic at 90 min [2] | PAMPA Pe (pH 5.0) ([3]; pH 5.0) | PAMPA Pe (pH 6.2) ([3]; pH 6.2) | PAMPA Pe (pH 7.4) ([3]; pH 7.4) | efflux ratio at 2 h, 10 μM [4] | Papp B→A at 2 h, 10 μM [4] |
| --- | --- | --- | --- | --- | --- | --- | --- | --- |
| CC(C)(C)NC(=O)c1cc(NC(=O)Cc2cc(O)c(C(C)(C)C)cc2F)ccn1 [91 of PCT/GB2019/050209, reference compound] | 15.6 μL/min/million cells | 51.0 µL/min/mg | 10 µg/mL (≈ 24.9 µM) | – | – | – | – | – |
| CC(C)(C#N)NC(=O)c1cc(NC(=O)Cc2ccc(C(C)(C)C)c(O)c2)ccn1 [93.4 of PCT/GB2019/050209, reference compound] | 24.1 μL/min/million cells | 32.8 µL/min/mg | 37 µg/mL (≈ 93.8 µM) | 30.9 ×10^−4 cm/s | 38.4 ×10^−4 cm/s | 36.4 ×10^−4 cm/s | – | – |
| CC(C#N)NC(=O)c1cc(NC(=O)Cc2cc(O)c(C(C)(C)C)cc2F)ccn1 (centres unmarked) [Example 1.3] | – | – | 35 µg/mL (≈ 87.8 µM) | – | – | – | 0.9 | 2.5 ×10⁻⁶ cm/s |
| CC(C)(O)c1cc(F)c(CC(=O)Nc2ccnc(C(=O)NC3(C(F)(F)F)CC3)c2)cc1O [Example 2, 4-[[2-[2-Fluoro-5-hydroxy-4-(1-hydroxy-1-methyl-ethyl)phenyl]acetyl]amino]-N-[1-(trifluoromethyl)cyclopropyl]pyridine-2-carboxamide] | – | – | 152 µg/mL (≈ 334 µM) | – | – | – | 1.8 | 5.7 ×10⁻⁶ cm/s |
| CC(C)(CO)c1cc(F)c(CC(=O)Nc2ccnc(C(=O)NC3(C(F)(F)F)CC3)c2)cc1O [Example 2.6, 4-[[2-[2-Fluoro-5-hydroxy-4-(2-hydroxy-1,1-dimethyl-ethyl)phenyl]acetyl]amino]-N-[1-(trifluoromethyl)cyclopropyl]pyridine-2-carboxamide] | – | – | 142 µg/mL (≈ 302 µM) | – | – | – | 2.4 | 5.3 ×10⁻⁶ cm/s |
| CCC(C)(O)c1cc(F)c(CC(=O)Nc2ccnc(C(=O)NC3(C(F)(F)F)CC3)c2)cc1O (centres unmarked) [Example 2.11, 4-[[2-[2-Fluoro-5-hydroxy-4-(1-hydroxy-1-methyl-propyl)phenyl]acetyl]amino]-N-[1-(trifluoromethyl)cyclopropyl]pyridine-2-carboxamide] | – | – | 116 µg/mL (≈ 247 µM) | – | – | – | 1 | – |
| O=C(Cc1cc(O)c(C2(CO)CCC2)cc1F)Nc1ccnc(C(=O)NC2(C(F)(F)F)CC2)c1 [Example 2.13, 4-[[2-[2-Fluoro-5-hydroxy-4-[1-(hydroxymethyl)cyclobutyl]phenyl]acetyl]amino]-N-[1-(trifluoromethyl)cyclopropyl]pyridine-2-carboxamide] | – | – | 67 µg/mL (≈ 139 µM) | – | – | – | 2.6 | 6.1 ×10⁻⁶ cm/s |
| CC(C)(CCO)c1cc(F)c(CC(=O)Nc2ccnc(C(=O)NC3(C(F)(F)F)CC3)c2)cc1O [Example 11, 4-[[2-[2-Fluoro-5-hydroxy-4-(3-hydroxy-1,1-dimethyl-propyl)phenyl]acetyl]amino]-N-[1-(trifluoromethyl)cyclopropyl]pyridine-2-carboxamide] | – | – | 120 µg/mL (≈ 248 µM) | – | – | – | 2.3 | 5.5 ×10⁻⁶ cm/s |
| CC(C)(CO)c1cc(Cl)c(CC(=O)Nc2ccnc(C(=O)NC3(C(F)(F)F)CC3)c2)cc1O [Example 14, 4-[[2-[2-Chloro-5-hydroxy-4-(2-hydroxy-1,1-dimethyl-ethyl)phenyl]acetyl]amino]-N-[1-(trifluoromethyl)cyclopropyl]pyridine-2-carboxamide] | – | – | 90 µg/mL (≈ 185 µM) | – | – | – | 2.8 | 4.9 ×10⁻⁶ cm/s |
| Cc1cc(C(C)(C)CO)c(O)cc1CC(=O)Nc1ccnc(C(=O)NC2(C(F)(F)F)CC2)c1 [Example 14.1, 4-[[2-[5-Hydroxy-4-(2-hydroxy-1,1-dimethyl-ethyl)-2-methyl-phenyl]acetyl]amino]-N-[1-(trifluoromethyl)cyclopropyl]pyridine-2-carboxamide] | – | – | 154 µg/mL (≈ 331 µM) | – | – | – | 2.8 | 6 ×10⁻⁶ cm/s |
| CC(C)(CO)c1cc(Cl)c(CC(=O)Nc2ccnc(C(=O)NC3(C(F)F)CC3)c2)cc1O [Example 15.3, 4-[[2-[2-Chloro-5-hydroxy-4-(2-hydroxy-1,1-dimethyl-ethyl)phenyl]acetyl]amino]-N-[1-(difluoromethyl)cyclopropyl]pyridine-2-carboxamide] | – | – | 164 µg/mL (≈ 351 µM) | – | – | – | 19.8 | 7.2 ×10⁻⁶ cm/s |
| O=C(Cc1cc(O)c(C(CO)C(F)(F)F)cc1F)Nc1ccnc(C(=O)NC2(C(F)(F)F)CC2)c1 (centres unmarked) [Example 17, 4-[[2-[2-Fluoro-5-hydroxy-4-[2,2,2-trifluoro-1-(hydroxymethyl)ethyl]phenyl]acetyl]amino]N-[1-(trifluoromethyl)cyclopropyl]pyridine-2-carboxamide] | – | – | 292 µg/mL (≈ 573 µM) | – | – | – | 20.7 | 7.8 ×10⁻⁶ cm/s |
